Measurements: patent publication US6608086B2, “Dihydropyridines and new uses thereof” (Synaptic Pharmaceutical Corporation, priority 1993, dated 2003)
Counter-ions that a name gives are not always drawn. Like-named read-outs stand apart in the source and are kept apart here.

What was measured:
[1] = target: T1, α1A Human Adrenergic Receptor (Homo sapiens, UniProt P25100); test: Radioligand binding, [3H]prazosin, cloned human α1A adrenergic receptor
T1 construct: The entire coding region of α1A (1719 bp); expressed in transfected cells
T1 sequence (P25100 1-572): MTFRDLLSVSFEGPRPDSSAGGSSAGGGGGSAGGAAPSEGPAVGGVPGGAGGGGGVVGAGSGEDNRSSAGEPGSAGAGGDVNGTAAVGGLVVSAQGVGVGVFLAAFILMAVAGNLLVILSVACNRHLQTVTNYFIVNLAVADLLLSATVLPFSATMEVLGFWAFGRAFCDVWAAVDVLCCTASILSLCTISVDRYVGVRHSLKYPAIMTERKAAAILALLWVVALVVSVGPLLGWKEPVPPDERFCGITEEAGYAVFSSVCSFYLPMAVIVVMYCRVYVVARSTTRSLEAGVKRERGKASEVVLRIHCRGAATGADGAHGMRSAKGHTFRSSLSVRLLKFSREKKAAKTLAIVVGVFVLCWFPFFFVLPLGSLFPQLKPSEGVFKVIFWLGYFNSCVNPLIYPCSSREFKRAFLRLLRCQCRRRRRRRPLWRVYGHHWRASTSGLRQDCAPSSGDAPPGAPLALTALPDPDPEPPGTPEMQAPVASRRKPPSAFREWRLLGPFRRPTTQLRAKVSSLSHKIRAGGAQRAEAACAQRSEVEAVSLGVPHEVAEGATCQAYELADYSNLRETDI
Outline: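 Filter-bound radioactivity measured [3H]prazosin (0.5 nM) binding to membranes of LM(tk−) cells expressing the human α1A receptor after 20 min at 37° C. Phentolamine at 10 μM set nonspecific binding.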

L-type calcium channel = target: T2, L-type calcium channel (Rattus norvegicus, UniProt P22002); test: Competition binding of [3H]nitrendipine to membrane fragments of rat cardiac muscle; conditions: [3H]nitrendipine, rat cardiac muscle membranes
T2 construct: membrane fragments of rat cardiac muscle; from tissue; host or cells: rat cardiac muscle membranes

α2B receptor = target: T3, α2B receptor (Homo sapiens, UniProt P18089); test: Competition binding, [3H]rauwolscine, human α2B receptor; conditions: [3H]rauwolscine
T3 construct: host or cells: LM(tk-) cells, line L-NGC-α2B
T3 sequence (P18089 1-450): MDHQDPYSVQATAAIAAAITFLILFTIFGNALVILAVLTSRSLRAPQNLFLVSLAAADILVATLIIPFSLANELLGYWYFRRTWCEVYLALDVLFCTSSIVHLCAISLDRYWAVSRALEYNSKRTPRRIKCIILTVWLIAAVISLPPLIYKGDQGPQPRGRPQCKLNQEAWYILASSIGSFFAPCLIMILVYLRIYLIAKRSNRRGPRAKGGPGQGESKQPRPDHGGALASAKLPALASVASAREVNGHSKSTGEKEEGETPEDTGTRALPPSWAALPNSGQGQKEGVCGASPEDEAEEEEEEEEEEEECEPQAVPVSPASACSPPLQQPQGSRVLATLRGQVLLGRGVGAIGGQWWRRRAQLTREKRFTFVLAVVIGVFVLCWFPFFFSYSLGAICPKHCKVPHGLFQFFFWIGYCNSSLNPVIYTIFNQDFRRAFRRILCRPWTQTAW
From the text: (§1) The protocols for these experiments are given below.
(§2) α2 Human Adrenergic Receptors:
(§3) To determine the potency of […], antagonists at the α2 receptors, LM(tk−) cell lines stably transfected with the genes encoding the α2A, α2B, and α2C receptors were used. The cell line expressing the α2A receptor is designated L-α2A, and was deposited on Nov. […] The cell line expressing the α2B receptor is designated L-NGC-α2B, and was deposited on Oct. […] The cell line expressing the α2C receptor is designated L-α2C, and was deposited on Nov. […] Cell lysates were prepared as described above (see Radioligand Binding Assays), and suspended in 25 mM glycylglycine buffer (pH 7.6 at room temperature). Equilibrium competition binding assay were performed using [3H]rauwolscine (0.5 nM), and nonspecific binding was determined by incubation with 10 μM phentolamine. The bound radioligand was separated by filtration through GF/B filters using a cell harvester.

human prostatic tissue = test: In vitro human prostate model: block of phenylephrine-induced contraction of human prostatic tissue; type: cell-based; conditions: In Vitro Human Prostate Model; phenylephrine-induced contraction
From the text: The protocol for these experiments is given below.
Functional Properties of α1 Antagonists in the Human Prostate
The efficacy of α1 adrenergic antagonists for the treatment of benign prostatic hyperplasia (BPH) is related to their ability to elicit relaxation of prostate smooth muscle. An index of this efficacy can be obtained by determining the potency of al antagonists to antagonize the contraction of human prostatic tissue induced by an α1 agonist “in vitro”. Furthermore, by comparing the potency of subtype selective α1 antagonists in binding assays using human α1 receptors with their potency to inhibit agonist-induced smooth muscle contraction, it is possible to determine which of the α1 adrenergic receptor subtypes is involved in the contraction of prostate smooth muscle.
Prostatic adenomas were obtained at the time of surgery from patients with symptomatic BPH. […] The baths were maintained at 37° C. and continuously oxygenated with 5% CO2 and 95% O2. Isometric tension was measured with a Grass Instrument FT03 force transducer interfaced with a computer. Tissue strips were contracted with varying concentrations of phenylephrine after incubating for 20 minutes in the absence and presence of at least three different concentrations of antagonist. Dose-response curves for phenylephrine were constructed, and the antagonist potency (pA2) was estimated by the dose-ratio method. The concentration of some antagonists in the tissue bath was assessed by measuring the displacement of [3H]prazosin by aliquots of the bath medium, using membrane preparations of the cloned human α1C receptor. This control was necessary to account for losses of antagonist due to adsorption to the tissue bath and/or metabolism during the time the antagonists were equilibrated with the prostate tissue.

canine prostate = test: In vivo dog prostate model: inhibition of phenylephrine-induced increase in urethral pressure in anesthetized dogs; conditions: In Vivo Dog Prostate Model; phenylephrine-induced contraction, urethral pressure
Description: Protocol for In Vivo Evaluation of Compounds in Canine Prostate
Adult male mongrel dogs more than one year of age were chosen for the model. After induction of general anesthesia using sodium pentobarbital (25 mg/Kg i.v.), the animals were intubated and allowed to breathe spontaneously. An arterial catheter was inserted via the femoral artery to monitor blood pressure and i.v. line was inserted into the leg for fluid and drug administration. A constant saline infusion was maintained at 40 to 50 mL/h. Next, a seven cm lower abdominal incision was made one cm lateral to the penis.
The bladder, prostate and a short segment of urethra were identified and isolated, without damage to the nerves or blood vessels. A cystotomy incision was made through which the pressure catheter was inserted and positioned in the prostatic urethra. The cystotomy was not closed, but the wound edges were sutured to stop bleeding. The tip of the catheter was positioned just distal to the prostate and secured in place with an O-silk tie around the urethra. A second holding suture at the bladder neck secured the catheter in place.
Fluid, either water or saline, was pumped by a Harvard infusion pump at 0.1 mL/min through a Gould pressure transducer into the catheter. The fluid exists at a port in the catheter which is in the prostatic urethra. Occlusion of the port, by contraction of the prostate, blocks the flow and a pressure wave is created. This pressure is transmitted back through the catheter to the transducer which is attached to a Gould recorder. Squeezing the prostate gland caused an increase in urethral pressure which verified the correct position in the urethra.
The compounds were tested as follows: A dose response curve was first generated for phenylephrine alone, in doses ranging from one μg/Kg to 50 μg/Kg. The absolute rise in urethral pressure was recorded for each dose and the next dose given when the urethral pressure returned to baseline. Phenylephrine dose response curves were generated in all animals tested. Increasing doses of compounds were then given, and the phenylephrine dose response curve repeated in the prepense of each dose of the compound. No animal received more than one compound; four animals were used to test each compound. To test for tachyphylaxis, four separate dogs were challenged with repeated phenylephrine doses for six hrs, the usual length of each experiment. From the dose-effect data, the inhibition constant (Ki) and the median-effect dose (ED50) were calculated. Both the Ki and ED50 values given are calculated by using microcomputer software and an IBM-PC.

α2A receptor = target: T4, α2A receptor (Homo sapiens, UniProt P08913); test: Competition binding, [3H]rauwolscine, human α2A receptor; conditions: [3H]rauwolscine
T4 construct: host or cells: LM(tk-) cells, line L-α2A
T4 sequence (P08913 1-465): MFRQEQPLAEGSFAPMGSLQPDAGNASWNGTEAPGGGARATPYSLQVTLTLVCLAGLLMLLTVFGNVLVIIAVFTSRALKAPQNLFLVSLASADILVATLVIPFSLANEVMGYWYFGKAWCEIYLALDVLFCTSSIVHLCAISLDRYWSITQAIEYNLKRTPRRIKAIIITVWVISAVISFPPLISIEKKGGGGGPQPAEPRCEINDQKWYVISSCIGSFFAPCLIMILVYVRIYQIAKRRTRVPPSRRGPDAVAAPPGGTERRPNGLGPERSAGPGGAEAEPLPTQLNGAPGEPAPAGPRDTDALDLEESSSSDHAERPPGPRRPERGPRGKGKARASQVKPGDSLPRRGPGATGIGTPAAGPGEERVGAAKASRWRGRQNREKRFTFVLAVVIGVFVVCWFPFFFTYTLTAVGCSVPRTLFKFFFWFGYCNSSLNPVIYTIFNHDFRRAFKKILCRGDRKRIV
From the text: as §1, §2, §3

α2C receptor = target: T5, α2C receptor (Homo sapiens, UniProt P18825); test: Competition binding, [3H]rauwolscine, human α2C receptor; conditions: [3H]rauwolscine
T5 construct: host or cells: LM(tk-) cells, line L-α2C
T5 sequence (P18825 1-462): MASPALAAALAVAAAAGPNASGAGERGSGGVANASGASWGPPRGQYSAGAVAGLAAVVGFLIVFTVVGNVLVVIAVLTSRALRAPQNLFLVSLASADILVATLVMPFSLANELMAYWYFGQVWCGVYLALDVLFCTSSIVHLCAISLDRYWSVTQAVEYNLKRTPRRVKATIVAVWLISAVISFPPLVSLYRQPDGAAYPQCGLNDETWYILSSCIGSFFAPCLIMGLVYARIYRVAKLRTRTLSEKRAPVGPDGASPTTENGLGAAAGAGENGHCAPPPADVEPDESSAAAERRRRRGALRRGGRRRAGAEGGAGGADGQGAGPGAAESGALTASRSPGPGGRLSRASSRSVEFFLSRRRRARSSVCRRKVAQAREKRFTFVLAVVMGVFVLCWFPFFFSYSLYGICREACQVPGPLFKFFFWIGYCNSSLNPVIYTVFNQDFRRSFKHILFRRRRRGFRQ
From the text: as §1, §2, §3

[2] = SEM and n in lines below, read-out: pKi Ca (converted)
[3] = LM(tk-) cell line L-NGC-α2B, SEM and n in lines below
[4] = mean, read-out: PKi Ca (converted)
[5] = human receptor, LM(tk-) cell lysates, mean, read-out: PKi alpha-2 2b (converted)
[6] = human receptor, LM(tk-) cell lysates, mean, read-out: PKi alpha-2 2a (converted)
[7] = human receptor, LM(tk-) cell lysates, mean, read-out: PKi alpha-2 2c (converted)

T2 sequence (P22002 whole entry, other chains not shown, the tested form may be a part): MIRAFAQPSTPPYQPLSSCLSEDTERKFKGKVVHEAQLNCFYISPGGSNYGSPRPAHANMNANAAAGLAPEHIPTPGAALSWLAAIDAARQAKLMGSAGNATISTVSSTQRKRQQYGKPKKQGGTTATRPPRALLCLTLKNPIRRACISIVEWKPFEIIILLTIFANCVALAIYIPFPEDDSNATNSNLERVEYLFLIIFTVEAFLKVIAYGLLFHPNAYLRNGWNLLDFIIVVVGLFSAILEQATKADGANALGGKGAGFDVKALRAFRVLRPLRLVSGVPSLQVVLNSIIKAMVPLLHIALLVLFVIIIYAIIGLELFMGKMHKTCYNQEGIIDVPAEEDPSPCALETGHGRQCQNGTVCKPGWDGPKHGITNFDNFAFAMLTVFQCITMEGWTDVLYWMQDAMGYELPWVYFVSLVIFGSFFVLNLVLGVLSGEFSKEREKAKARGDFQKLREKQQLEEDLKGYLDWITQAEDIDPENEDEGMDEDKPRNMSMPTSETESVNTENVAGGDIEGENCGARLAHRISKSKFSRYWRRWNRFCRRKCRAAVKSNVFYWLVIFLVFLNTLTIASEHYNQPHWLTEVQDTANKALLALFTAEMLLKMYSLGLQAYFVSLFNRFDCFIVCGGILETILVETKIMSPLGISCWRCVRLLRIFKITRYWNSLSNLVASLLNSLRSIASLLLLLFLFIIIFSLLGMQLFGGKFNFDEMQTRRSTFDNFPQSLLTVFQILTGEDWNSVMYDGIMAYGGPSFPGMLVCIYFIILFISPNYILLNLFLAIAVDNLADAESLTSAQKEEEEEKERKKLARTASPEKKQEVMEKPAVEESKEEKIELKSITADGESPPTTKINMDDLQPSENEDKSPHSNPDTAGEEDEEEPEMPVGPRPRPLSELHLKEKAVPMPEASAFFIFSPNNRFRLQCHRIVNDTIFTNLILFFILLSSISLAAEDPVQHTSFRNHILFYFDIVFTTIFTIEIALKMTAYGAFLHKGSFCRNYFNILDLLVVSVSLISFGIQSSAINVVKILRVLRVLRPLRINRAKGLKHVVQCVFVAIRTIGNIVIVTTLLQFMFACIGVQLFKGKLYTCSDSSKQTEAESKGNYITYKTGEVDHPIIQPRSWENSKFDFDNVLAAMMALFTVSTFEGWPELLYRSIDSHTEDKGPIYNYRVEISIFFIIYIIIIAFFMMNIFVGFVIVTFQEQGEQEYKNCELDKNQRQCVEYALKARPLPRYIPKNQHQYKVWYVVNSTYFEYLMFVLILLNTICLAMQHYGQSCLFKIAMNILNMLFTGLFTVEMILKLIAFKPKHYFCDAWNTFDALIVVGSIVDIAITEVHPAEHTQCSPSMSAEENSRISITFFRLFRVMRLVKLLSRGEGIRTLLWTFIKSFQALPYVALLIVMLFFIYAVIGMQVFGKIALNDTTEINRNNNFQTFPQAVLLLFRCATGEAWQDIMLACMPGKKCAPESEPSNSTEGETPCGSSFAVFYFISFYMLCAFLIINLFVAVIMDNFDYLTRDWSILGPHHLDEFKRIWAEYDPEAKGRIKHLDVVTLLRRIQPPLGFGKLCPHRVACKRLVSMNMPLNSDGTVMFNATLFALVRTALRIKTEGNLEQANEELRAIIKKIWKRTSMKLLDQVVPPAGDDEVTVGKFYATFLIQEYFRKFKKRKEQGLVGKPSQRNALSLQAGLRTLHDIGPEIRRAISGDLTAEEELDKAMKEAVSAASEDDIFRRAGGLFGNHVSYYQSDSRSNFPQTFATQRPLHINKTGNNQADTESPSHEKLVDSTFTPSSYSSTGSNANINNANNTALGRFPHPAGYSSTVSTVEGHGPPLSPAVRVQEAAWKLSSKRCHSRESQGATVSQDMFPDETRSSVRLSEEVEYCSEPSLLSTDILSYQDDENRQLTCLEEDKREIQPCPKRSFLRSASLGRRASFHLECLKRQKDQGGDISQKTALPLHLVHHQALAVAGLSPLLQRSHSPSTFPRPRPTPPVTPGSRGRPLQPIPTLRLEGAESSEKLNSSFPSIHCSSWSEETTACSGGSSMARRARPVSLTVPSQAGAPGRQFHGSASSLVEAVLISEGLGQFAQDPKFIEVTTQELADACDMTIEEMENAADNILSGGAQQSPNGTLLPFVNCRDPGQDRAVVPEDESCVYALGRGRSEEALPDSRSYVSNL
T2 sequence (P54290 25-944 partner limits assumed, other chains not shown): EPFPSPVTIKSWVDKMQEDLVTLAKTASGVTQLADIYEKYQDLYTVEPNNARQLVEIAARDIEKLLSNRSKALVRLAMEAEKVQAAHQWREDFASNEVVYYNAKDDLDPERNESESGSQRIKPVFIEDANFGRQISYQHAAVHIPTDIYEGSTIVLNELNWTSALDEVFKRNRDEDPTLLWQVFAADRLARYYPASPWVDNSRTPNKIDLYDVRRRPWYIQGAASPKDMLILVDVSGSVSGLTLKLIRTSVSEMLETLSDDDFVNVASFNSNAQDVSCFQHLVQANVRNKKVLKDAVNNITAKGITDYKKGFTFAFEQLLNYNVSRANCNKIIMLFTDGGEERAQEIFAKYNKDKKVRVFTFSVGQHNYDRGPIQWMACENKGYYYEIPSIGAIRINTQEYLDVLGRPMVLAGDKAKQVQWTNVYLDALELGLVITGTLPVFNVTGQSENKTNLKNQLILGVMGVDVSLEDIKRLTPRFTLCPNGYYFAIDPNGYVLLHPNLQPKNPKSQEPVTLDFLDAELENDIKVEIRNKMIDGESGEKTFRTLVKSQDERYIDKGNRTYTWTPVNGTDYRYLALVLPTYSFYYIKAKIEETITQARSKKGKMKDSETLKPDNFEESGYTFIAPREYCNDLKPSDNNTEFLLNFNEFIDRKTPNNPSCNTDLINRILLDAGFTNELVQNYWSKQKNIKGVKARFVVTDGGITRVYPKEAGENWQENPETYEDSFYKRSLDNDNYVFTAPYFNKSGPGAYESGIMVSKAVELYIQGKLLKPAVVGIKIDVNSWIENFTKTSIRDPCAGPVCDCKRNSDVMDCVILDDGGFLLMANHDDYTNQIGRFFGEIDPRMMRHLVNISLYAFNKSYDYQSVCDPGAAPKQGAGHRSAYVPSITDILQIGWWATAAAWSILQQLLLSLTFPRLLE
T2 sequence (P54290 945-1091 partner limits assumed, other chains not shown): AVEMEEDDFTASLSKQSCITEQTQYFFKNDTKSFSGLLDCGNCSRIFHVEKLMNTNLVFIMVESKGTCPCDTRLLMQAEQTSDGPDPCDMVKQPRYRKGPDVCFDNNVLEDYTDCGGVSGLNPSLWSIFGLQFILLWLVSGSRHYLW

With `CC1=C(C(N)=O)C(c2ccc([N+](=O)[O-])cc2)C(C(=O)NCCCN2CCC(c3ccccc3)(c3ccccc3)CC2)=C(C)N1` (racemic) [(±)-2] the “pKi alpha-1 1a” value [1] was 6.22, the Ki (L-type calcium channel; [2]) was 200 µM and the “pKi alpha-2 2b” value (α2B receptor; [3]) was 6.38.

With `COC(=O)C1=C(C)NC(C)=C(C(=O)NCCCN2CCC(c3ccccc3)(c3ccccc3)CC2)C1c1ccc([N+](=O)[O-])cc1` (racemic) [(±)-93, hydrochloride hydrate] the pKi (human prostatic tissue) was 7.28 ± 0.4 and the Ki (canine prostate) was 7.6 nmol/kg.

`CCOC(=O)C1(c2ccccc2)CCN(CCCNC(=O)C2=C(C)NC(C)=C(C(C)=O)C2c2ccc([N+](=O)[O-])cc2)CC1` (racemic) [Example 202, 5-Acetyl-1,4-dihydro-2,6-dimethyl-3-{N-[3-(4-ethoxycarbonyl-4-phenylpiperidin-1-yl)propyl]}carboxamido-4-(4-nitrophenyl)pyridine] showed a melting point of 89 to 90 °C, a Ki (L-type calcium channel; [4]) of 263 µM and a Ki (α2B receptor; [5]) of 0.912 µM. For the same compound, the Ki (α2A receptor; [6]) was 4.47 µM and the Ki (α2C receptor; [7]) was 2.14 µM.

For `CC1=C(C(N)=O)C(c2ccc([N+](=O)[O-])cc2)C(C(=O)NCCCN2CCC(c3ccccc3)(c3ccccc3)CC2)=C(C)N1` (single isomer, unassigned; (+)) [(+)-2], the “pKi alpha-1 1a” value ([1]; [3H]prazosin, cloned human receptor in LM(tk-) cell membranes, SEM and n in lines below) was 6.40, the “pKi Ca” value (L-type calcium channel; SEM and n in lines below) was 4.11 and the “pKi alpha-2 2b” value (α2B receptor; [3]) was 6.40.

For `CC1=C(C(N)=O)C(c2ccc([N+](=O)[O-])cc2)C(C(=O)NCCCN2CCC(c3ccccc3)(c3ccccc3)CC2)=C(C)N1` (single isomer, unassigned; (-)) [(−)-2], the “pKi alpha-1 1a” value [1] was 6.46, the Ki (L-type calcium channel; [2]) was 1820 µM and the “pKi alpha-2 2b” value (α2B receptor; [3]) was 6.56.

`CNC(=O)C1=C(C)NC(C)=C(C(=O)NCCCN2CCC(c3ccccc3)CC2)C1c1ccc([N+](=O)[O-])cc1` (centres unmarked) [Example 56, 1,4-Dihydro-2,6-dimethyl-5-(N-methyl) carboxamido-4-(4-nitrophenyl)-3-{N-[3-(4-phenylpiperidin-1-yl)propyl]}carboxamidopyridine hydrochloride hemihydrate] gave a Ki (L-type calcium channel; [2]) of 6.46 µM, a Ki (α2B receptor; LM(tk-) cell line L-NGC-α2B, SEM and n in lines below, read-out: pKi alpha-2 2b (converted)) of 0.129 µM and a Ki (α2A receptor; LM(tk-) cell line L-α2A, SEM and n in lines below, read-out: pKi alpha-2 2a (converted)) of 0.269 µM. It also gave a Ki (α2C receptor; LM(tk-) cell line L-α2C, SEM and n in lines below, read-out: pKi alpha-2 2c (converted)) of 0.186 µM.

Compound `COC(=O)C1(c2ccccc2)CCN(CCCNC(=O)C2=C(C)NC(C)=C(C(N)=O)C2c2ccc([N+](=O)[O-])cc2)CC1` (centres unmarked) [Example 198, 5-Carboxamido-1,4-dihydro-2,6-dimethyl-3-{N-[3-(4-methoxycarbonyl-4-phenylpiperidin-1-yl)propyl]}carboxamido-4-(4-nitrophenyl)pyridine] has a melting point of 120 to 121 °C, a Ki (L-type calcium channel; [4]) of 178 µM and a Ki (α2B receptor; [5]) of 1.07 µM. The Ki (α2A receptor; [6]) was 1.12 µM and the Ki (α2C receptor; [7]) was 2.45 µM.

For `COC(=O)C1(c2ccccc2)CCN(CCCNC(=O)C2=C(C)NC(C)=C(C(C)=O)C2c2ccc([N+](=O)[O-])cc2)CC1` (centres unmarked) [Example 201, 5-Acetyl-1,4-dihydro-2,6-dimethyl-3-{N-[3-(4-methoxycarbonyl-4-phenylpiperidin-1-yl)propyl]}carboxamido-4-(4-nitrophenyl)pyridine], the melting point was 94 to 95 °C, the Ki (L-type calcium channel; [4]) was 67.6 µM and the Ki (α2A receptor; [6]) was 4.47 µM. The Ki (α2C receptor; [7]) was 3.24 µM.
